Source: paper PMC11385386 (Nature Communications, 2024)
pKd: −log10 of the molar value.

Biological target: IDH1^R132H (Homo sapiens, UniProt O75874, R132H)
Test: Affinity of IDH1 R132H for NADPH
Format: binding

Sequence of IDH1^R132H (O75874 whole entry R132H): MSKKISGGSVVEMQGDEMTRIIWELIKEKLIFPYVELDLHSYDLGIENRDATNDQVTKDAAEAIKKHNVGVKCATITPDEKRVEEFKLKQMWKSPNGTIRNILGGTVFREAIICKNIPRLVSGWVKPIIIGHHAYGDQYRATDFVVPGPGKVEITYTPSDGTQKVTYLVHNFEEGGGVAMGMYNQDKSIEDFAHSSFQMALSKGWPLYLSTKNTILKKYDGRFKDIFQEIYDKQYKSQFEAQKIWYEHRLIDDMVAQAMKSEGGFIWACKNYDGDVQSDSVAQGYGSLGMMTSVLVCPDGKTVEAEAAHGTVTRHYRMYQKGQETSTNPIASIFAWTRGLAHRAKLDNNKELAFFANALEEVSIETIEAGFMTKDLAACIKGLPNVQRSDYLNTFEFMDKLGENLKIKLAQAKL

With NC(=O)C1=CN([C@@H]2O[C@H](COP(=O)(O)OP(=O)(O)OC[C@H]3O[C@@H](n4cnc5c(N)ncnc54)[C@H](OP(=O)(O)O)[C@@H]3O)[C@@H](O)[C@H]2O)C=CC1 [NADPH] the pKd was about 7.30.
